From paper PMC12736255, “Reinvestigating Pyrrol-2-One-Based Compounds: From Antimicrobial Agents to Promising Antitumor Candidates” (Pharmaceuticals, 2025)

What was measured:
Experiment in all cases: NCI-60 single-dose screen
Format in all cases: cell-based
OVCAR-4 = settings: Homo sapiens; OVCAR-4, 10^–5 M; read-out: GI (%)
Text: (§1) In the next step, all synthesized compounds were electronically submitted and accepted for testing to the National Cancer Institute (NCI) platform, for the single dose (10^−5 M) screening against a panel of 60 human tumor cell lines, representing leukemia, melanoma, and cancers of the lung, colon, central nervous system, ovary, kidney, prostate, and breast. The results are summarized in Table 2, with the best values highlighted in red (Figures S1–S14).

ACHN = settings: Homo sapiens, 10^–5 M, read-out: GI (%)
Text: as §1

HT-29 = settings: Homo sapiens; HT-29, 10^–5 M; read-out: GI (%)
Text: as §1

HL-60(TB) = settings: Homo sapiens, 10^–5 M, read-out: GI (%)
Text: as §1

SW-620 = settings: Homo sapiens; SW-620, 10^–5 M; read-out: GI (%)
Text: as §1

NCI-H460 = settings: Homo sapiens; NCI-H460, 10^–5 M; read-out: GI (%)
Text: as §1

NCI-H23 = settings: Homo sapiens; NCI-H23, 10^–5 M; read-out: GI (%)
Text: as §1

RPMI-8226 = settings: Homo sapiens; RPMI-8226, 10^–5 M; read-out: GI (%)
Text: as §1

SK-MEL-28 = settings: Homo sapiens; SK-MEL-28, 10^–5 M; read-out: GI (%)
Text: as §1

MCF7 = settings: Homo sapiens; MCF7, 10^–5 M; read-out: GI (%)
Text: as §1

SNB-75 = settings: Homo sapiens; SNB-75, 10^–5 M; read-out: GI (%)
Text: as §1

SR = settings: Homo sapiens, 10^–5 M, read-out: GI (%)
Text: as §1

K-562 = settings: Homo sapiens, K562; K-562, 10^–5 M; read-out: GI (%)
Text: as §1

HCT-15 = settings: Homo sapiens; HCT-15, 10^–5 M; read-out: GI (%)
Text: as §1

NCI-H322M = settings: Homo sapiens, 10^–5 M, read-out: GI (%)
Text: as §1

786-0 = settings: Homo sapiens; 786-0, 10^–5 M; read-out: GI (%)
Text: as §1

SF-539 = settings: Homo sapiens; SF-539, 10^–5 M; read-out: GI (%)
Text: as §1

MALME-3M = settings: Homo sapiens, 10^–5 M, read-out: GI (%)
Text: as §1

HCT-116 = settings: Homo sapiens; HCT-116, 10^–5 M; read-out: GI (%)
Text: as §1

NCI/ADR-RES = settings: Homo sapiens, 10^–5 M, read-out: GI (%)
Text: as §1

CCRF-CEM = settings: Homo sapiens, 10^–5 M, read-out: GI (%)
Text: as §1

SF-268 = settings: Homo sapiens; SF-268, 10^–5 M; read-out: GI (%)
Text: as §1

IGROV1 = settings: Homo sapiens, IGROV-1; IGROV1, 10^–5 M; read-out: GI (%)
Text: as §1

TK-10 = settings: Homo sapiens; TK-10, 10^–5 M; read-out: GI (%)
Text: as §1

UACC-62 = settings: Homo sapiens; UACC-62, 10^–5 M; read-out: GI (%)
Text: as §1

M14 = settings: Homo sapiens; M14, 10^–5 M; read-out: GI (%)
Text: as §1

MOLT-4 = settings: Homo sapiens; MOLT-4, 10^–5 M; read-out: GI (%)
Text: as §1

SK-OV-3 = settings: Homo sapiens; SK-OV-3, 10^–5 M; read-out: GI (%)
Text: as §1

A549/ATCC = settings: Homo sapiens, 10^–5 M, read-out: GI (%)
Text: as §1

UACC-257 = settings: Homo sapiens; UACC-257, 10^–5 M; read-out: GI (%)
Text: as §1

DU-145 = settings: Homo sapiens; DU-145, 10^–5 M; read-out: GI (%)
Text: as §1

MDA-MB-231/ATCC = settings: Homo sapiens, 10^–5 M, read-out: GI (%)
Text: as §1

T-47D = settings: Homo sapiens, T47D, 10^–5 M, read-out: GI (%)
Text: as §1

HS 578T = settings: Homo sapiens, 10^–5 M, read-out: GI (%)
Text: as §1

NCI-H522 = settings: Homo sapiens; NCI-H522, 10^–5 M; read-out: GI (%)
Text: as §1

LOX IMVI = settings: Homo sapiens, 10^–5 M, read-out: GI (%)
Text: as §1

HOP-92 = settings: Homo sapiens; HOP-92, 10^–5 M; read-out: GI (%)
Text: as §1

SK-MEL-2 = settings: Homo sapiens; SK-MEL-2, 10^–5 M; read-out: GI (%)
Text: as §1

OVCAR-3 = settings: Homo sapiens; OVCAR-3, 10^–5 M; read-out: GI (%)
Text: as §1

Row | SMILES | inhibition at 10 µM (OVCAR-4) [%] | inhibition at 10 µM (ACHN) [%] | inhibition at 10 µM (HT-29) [%] | inhibition at 10 µM (HL-60(TB)) [%] | inhibition at 10 µM (SW-620) [%] | inhibition at 10 µM (NCI-H460) [%] | inhibition at 10 µM (NCI-H23) [%] | inhibition at 10 µM (RPMI-8226) [%] | inhibition at 10 µM (SK-MEL-28) [%] | inhibition at 10 µM (MCF7) [%] | inhibition at 10 µM (SNB-75) [%] | inhibition at 10 µM (SR) [%] | inhibition at 10 µM (K-562) [%] | inhibition at 10 µM (HCT-15) [%] | inhibition at 10 µM (NCI-H322M) [%] | inhibition at 10 µM (786-0) [%] | inhibition at 10 µM (SF-539) [%] | inhibition at 10 µM (MALME-3M) [%] | inhibition at 10 µM (HCT-116) [%] | inhibition at 10 µM (NCI/ADR-RES) [%] | other results
1 | O=C1C(Nc2ccc(I)cc2)=CC(c2ccc(Br)cc2)N1c1ccc(I)cc1 (stereo not drawn) [3d] | 30 | 15 | 14 | 0 | 16 | 0 | 3 | 34 | 12 | 60 | 3 | 0 | 15 | 13 | 0 | 6 | 0 | 0 | 19 | 0 | inhibition at 10 µM (CCRF-CEM): 17%; inhibition at 10 µM (SF-268): 15%; inhibition at 10 µM (IGROV1): 16%; inhibition at 10 µM (TK-10): 0%; inhibition at 10 µM (UACC-62): 0%; inhibition at 10 µM (M14): 0%; inhibition at 10 µM (MOLT-4): 20%; inhibition at 10 µM (SK-OV-3): 0%; inhibition at 10 µM (A549/ATCC): 0%; inhibition at 10 µM (UACC-257): 3%; inhibition at 10 µM (DU-145): 0%; inhibition at 10 µM (MDA-MB-231/ATCC): 0%; inhibition at 10 µM (T-47D): 49%; inhibition at 10 µM (HS 578T): 41%; inhibition at 10 µM (NCI-H522): 2%; inhibition at 10 µM (LOX IMVI): 1%; inhibition at 10 µM (HOP-92): 0%; inhibition at 10 µM (SK-MEL-2): 16%; inhibition at 10 µM (OVCAR-3): 5%
2 | O=C1C(Nc2ccc(I)cc2)=CC(c2ccc(C(F)(F)F)cc2)N1c1ccc(I)cc1 (stereo not drawn) [3e] | 100 | 100 | 32 | 51 | 47 | 43 | 11 | 60 | 31 | 44 | 100 | 99 | 16 | 12 | 97 | 76 | 37 | 78 | 58 | 35 | inhibition at 10 µM (CCRF-CEM): 100%; inhibition at 10 µM (SF-268): 100%; inhibition at 10 µM (IGROV1): 12%; inhibition at 10 µM (TK-10): 100%; inhibition at 10 µM (UACC-62): 12%; inhibition at 10 µM (M14): 64%; inhibition at 10 µM (MOLT-4): 75%; inhibition at 10 µM (SK-OV-3): 50%; inhibition at 10 µM (A549/ATCC): 30%; inhibition at 10 µM (UACC-257): 100%; inhibition at 10 µM (DU-145): 28%; inhibition at 10 µM (MDA-MB-231/ATCC): 62%; inhibition at 10 µM (T-47D): 100%; inhibition at 10 µM (HS 578T): 100%; inhibition at 10 µM (NCI-H522): 53%; inhibition at 10 µM (LOX IMVI): 7%; inhibition at 10 µM (HOP-92): 62%; inhibition at 10 µM (SK-MEL-2): 100%; inhibition at 10 µM (OVCAR-3): 72%
3 | O=C1C(Nc2ccc(I)cc2)=CC(c2cc(C(F)(F)F)cc(C(F)(F)F)c2)N1c1ccc(I)cc1 (stereo not drawn) [3f] | 69 | 49 | 5 | 59 | 20 | 35 | 12 | 43 | 9 | 46 | 100 | 47 | 26 | 17 | 10 | 29 | 17 | 0 | 43 | 7 | inhibition at 10 µM (CCRF-CEM): 100%; inhibition at 10 µM (SF-268): 21%; inhibition at 10 µM (IGROV1): 0%; inhibition at 10 µM (TK-10): 57%; inhibition at 10 µM (UACC-62): 0%; inhibition at 10 µM (M14): 0%; inhibition at 10 µM (MOLT-4): 89%; inhibition at 10 µM (SK-OV-3): 10%; inhibition at 10 µM (A549/ATCC): 16%; inhibition at 10 µM (UACC-257): 0%; inhibition at 10 µM (DU-145): 5%; inhibition at 10 µM (MDA-MB-231/ATCC): 42%; inhibition at 10 µM (T-47D): 100%; inhibition at 10 µM (HS 578T): 100%; inhibition at 10 µM (NCI-H522): 34%; inhibition at 10 µM (LOX IMVI): 17%; inhibition at 10 µM (HOP-92): 19%; inhibition at 10 µM (SK-MEL-2): 35%; inhibition at 10 µM (OVCAR-3): 35%
4 | O=C1C(Nc2ccc(I)cc2)=CC(c2ccc(O)c(O)c2)N1c1ccc(I)cc1 (stereo not drawn) [3h] | 100 | 61 | 96 | 100 | 100 | 98 | 73 | 100 | 75 | 91 | 86 | 100 | 89 | 84 | 34 | 52 | 72 | 100 | 96 | 35 | inhibition at 10 µM (CCRF-CEM): 100%; inhibition at 10 µM (SF-268): 82%; inhibition at 10 µM (IGROV1): 26%; inhibition at 10 µM (TK-10): 50%; inhibition at 10 µM (UACC-62): 62%; inhibition at 10 µM (M14): 99%; inhibition at 10 µM (MOLT-4): 100%; inhibition at 10 µM (SK-OV-3): 64%; inhibition at 10 µM (A549/ATCC): 73%; inhibition at 10 µM (UACC-257): 68%; inhibition at 10 µM (DU-145): 40%; inhibition at 10 µM (MDA-MB-231/ATCC): 42%; inhibition at 10 µM (T-47D): 65%; inhibition at 10 µM (HS 578T): 63%; inhibition at 10 µM (NCI-H522): 82%; inhibition at 10 µM (LOX IMVI): 57%; inhibition at 10 µM (HOP-92): 66%; inhibition at 10 µM (SK-MEL-2): 100%; inhibition at 10 µM (OVCAR-3): 96%
